# In patent publication US20090012144A1 (priority 2000, published 2009):
# Test system: not listed separately
# Experiment: log P determination by HPLC (reversed-phase C 18), EEC Directive 79/831 Annex V.A8
# Type: physicochemical
# Settings: HPLC, pH 2.3, 43° C.
# Procedure: The log P values given in the tables and Preparation Examples above are determined in accordance with EEC Directive 79/831 Annex V.A8 by HPLC (High Performance Liquid Chromatography) using a reversed-phase column (C 18). Temperature: 43° C. […]
# Calibration was carried out using unbranched alkan-2-ones (having 3 to 16 carbon atoms) with known log P values (determination of the log P values by the retention times using linear interpolation between two successive […]).
row,SMILES,log P (pH 2.3)
1,"C=CCNC(=O)CCC(=O)c1ccc(-c2ccc(OC(F)(F)F)cc2)cc1 [XV-1, N-Allyl-4-oxo-4-[4′-(trifluoromethoxy)-1,1′-biphenyl-4-yl]butanamide]",3.42
2,"O=C1CC[C@@]2(c3ccc(Br)cc3)OC[C@H](c3ccccc3)N12 [IX-2, (3S,7aS)-7a-(4-Bromophenyl)-3-phenyltetrahydropyrrolo[2,1-b][1,3],oxazol-5(6H)-one]",log P (pH 2.3) = 3.36 (purity 92.3%)

# Same assay, conditions: HPLC, pH 2.3, 43° C.; read-out: log P (pH 2.3)
row,SMILES,chromatographic logP
1,CC(C)(C)OC(=O)N[C@H](CCC(=O)c1c(F)cccc1F)c1ccc(-c2ccc(C#N)cc2)cc1 [IV-4],4.1
2,"CC(C)(C)OC(=O)N[C@H](CCC(=O)c1c(F)cccc1F)c1ccc(-c2ccc(OC(F)(F)F)cc2)cc1 [IV-1, tert-butyl (1R)-4-(2,6-difluorophenyl)-4-oxo-1-[4′-(trifluoromethoxy)-1,1′-biphenyl-4-yl]butylcarbamate]",5.18
3,"CC(C)(C)OC(=O)N1C(=O)CC[C@@H]1c1ccc(-c2ccc(OC(F)(F)F)cc2)cc1 [V-1, tert-butyl (5R)-2-oxo-5-[4′-(trifluoromethoxy)-1,1′-biphenyl-4-yl]-1-pyrrolidine carboxylate]",4.32
4,"CC(C)(C)OC(=O)N[C@H](CCC(=O)c1c(F)cccc1F)c1ccc(Br)cc1 [IV-2, tert-butyl (1R)-1-(4-bromophenyl)-4-(2,6-difluorophenyl)-4-oxobutylcarbamate]",4.22
5,Oc1ccc(-c2ccc([C@H]3CCC(c4c(F)cccc4F)=N3)cc2)cc1 [I-9],1.93

# Same assay, conditions: reversed-phase C18 HPLC column, pH 2.3, HPLC, pH 2.3, 43° C.; read-out: log P (pH 2.3)
row,SMILES,chromatographic logP
1,"O=C1CC[C@@]2(c3ccc(-c4ccc(OC(F)(F)F)cc4)cc3)OC[C@H](c3ccccc3)N12 [IX-1, (3S,7aS)-3-Phenyl-7a-[4′-(trifluoromethoxy)-1,1′-biphenyl-4-yl]tetrahydropyrrolo-[2,1-b][1,3]oxazol-5(6H)-one]",4.55
2,"O=C1CC[C@H](c2ccc(Br)cc2)N1 [VII-2, (5R)-5-(4-Bromophenyl)-2-pyrrolidinone]",3.54
3,"C=C(c1ccccc1)N1C(=O)CC[C@@H]1c1ccc(Br)cc1 [XII-2, (5R)-5-(4-Bromophenyl)-1-(1-phenylvinyl)-2-pyrrolidinone]",3.18
4,"C=CCNC(=O)CCC(=O)c1ccc(-c2ccc(OC(F)(F)F)cc2)cc1 [XV-1, N-Allyl-4-oxo-4-[4′-(trifluoromethoxy)-1,1′-biphenyl-4-yl]butanamide]",3.34
5,CC(C)(C)OC(=O)N1C(=O)CC[C@@H]1c1ccc(-c2ccc(C#N)cc2)cc1 [V-4],3.02
6,"C=C(c1ccccc1)N1C(=O)CC[C@@H]1c1ccc(-c2ccc(OC(F)(F)F)cc2)cc1 [XII-1, (5R)-1-(1-Phenylvinyl)-5-[4′-(trifluoromethoxy)-1,1′-biphenyl-4-yl]-2-pyrrolidinone]",4.35
7,N#Cc1ccc(-c2ccc([C@H]3CCC(c4c(F)cccc4F)=N3)cc2)cc1 [I-17],2.85
8,"Fc1cccc(F)c1C1=N[C@@H](c2ccc(Br)cc2)CC1 [I-15, (2R)-2-(4-bromophenyl)-5-(2,6-difluorophenyl)-3,4-dihydro-2H-pyrrole]",2.74
9,"O=S(=O)(c1ccc(-c2ccc([C@H]3CCC(c4c(F)cccc4F)=N3)cc2)cc1)C(F)(F)F [I-11, (2R)-5-(2,6-difluorophenyl)-2-{4′-[(trifluoromethyl)sulphonyl]-1,1′-biphenyl-4-yl}-3,4-dihydro-2H-pyrrole]",3.92
10,"Fc1cccc(F)c1C1=N[C@@H](c2ccc(-c3ccc(OC(F)(F)F)cc3)cc2)CC1 [I-3, (2R)-5-(2,6-difluorophenyl)-2-[4′-(trifluoromethoxy)-1,1′-biphenyl-4-yl]-3,4-dihydro-2H-pyrrole]",4.08
11,"O=C1CC[C@H](c2ccc(Br)cc2)N1[C@H](CCl)c1ccccc1 [XI-2, (5R)-5-(4-Bromophenyl)-1-[(1S)-2-chloro-1-phenylethyl]-2-pyrrolidinone]",3.61
12,"COC(=O)CCC(=O)c1ccc(-c2ccc(OC(F)(F)F)cc2)cc1 [VIII-a-1, Methyl-4-oxo-4-[4′-(trifluoromethoxy)-1,1′-biphenyl-4-yl]butanoate]",4.01
13,"O=C1CC[C@H](c2ccc(-c3ccc(OC(F)(F)F)cc3)cc2)N1 [VII-1, (5R)-5-[4′-(Trifluoromethoxy)-1,1′-biphenyl-4-yl]-2-pyrrolidinone]",2.95
14,"O=C1CC[C@H](c2ccc(-c3ccc(OC(F)(F)F)cc3)cc2)N1[C@H](CO)c1ccccc1 [X-1, (5R)-1-[(1S)-2-Hydroxy-1-phenylethyl]-5-[4′-(trifluoromethoxy)-1,1′-biphenyl-4-yl]-2-pyrrolidinone]",3.8
15,"CC(C)(C)OC(=O)N1C(=O)CC[C@@H]1c1ccc(Br)cc1 [V-2, tert-butyl (2R)-2-(4-bromophenyl)-5-oxo-1-pyrrolidinecarboxylate]",3.04
16,"C=CCN1C(=O)CC[C@@H]1c1ccc(-c2ccc(OC(F)(F)F)cc2)cc1 [XVII-1, (5R)-1-Allyl-5-[4′-(trifluoromethoxy)-1,1′-biphenyl-4-yl]-2-pyrrolidinone]",3.88
17,"O=C1CC[C@H](c2ccc(-c3ccc(OC(F)(F)F)cc3)cc2)N1[C@H](CCl)c1ccccc1 [XI-1, (5R)-1-[(1S)-2-Chloro-1-phenylethyl]-5-[4′-(trifluoromethoxy)-1,1′-biphenyl-4-yl]-2-pyrrolidinone]",4.78
18,"C=CCNC(=O)CC[C@H](O)c1ccc(-c2ccc(OC(F)(F)F)cc2)cc1 [XVI-1, (4S)—N-Allyl-4-hydroxy-4-[4′-(trifluoromethoxy)-1,1′-biphenyl-4-yl]butanamide]",2.99
19,"O=C1CC[C@H](c2ccc(Br)cc2)N1[C@H](CO)c1ccccc1 [X-2, (5R)-5-(4-Bromophenyl)-1-[(1S)-2-hydroxy-1-phenylethyl]-2-pyrrolidinone]",2.58

# Same assay, conditions: reversed-phase C18 HPLC column, pH 2.3, pH not given; read-out: log p/m.p.: log P
row,SMILES,chromatographic logP
1,"O=S(=O)(c1ccc(-c2ccc([C@H]3CCC(c4c(F)cccc4F)=N3)cc2)cc1)C(F)(F)F [I-11, (2R)-5-(2,6-difluorophenyl)-2-{4′-[(trifluoromethyl)sulphonyl]-1,1′-biphenyl-4-yl}-3,4-dihydro-2H-pyrrole]",3.92

# Same assay, conditions: reversed-phase C18 HPLC column, pH 7, HPLC, pH 7; read-out: log P (pH 7)
row,SMILES,chromatographic logP
1,"CC1(C)OB(c2ccc([C@H]3CCC(c4c(F)cccc4F)=N3)cc2)OC1(C)C [I-b-1, (2R)-5-(2,6-difluorophenyl)-2-[4-(4,4,5,5-tetramethyl-1,3,2-dioxaborolan-2-yl)phenyl]-3,4-dihydro-2H-pyrrole]",4.47

# Test system: Spodoptera exigua
# Experiment: Spodoptera exigua test (cabbage leaves, dip)
# Type: in vivo
# Settings: 0.04 ppm
# Procedure: (§1) [table] To produce a suitable preparation of active compound, 1 part by weight of active compound is mixed with the stated amounts of solvent and emulsifier, and the concentrate is diluted with emulsifier-containing water to the desired concentration. Cabbage leaves (Brassica oleracea) are treated by being dipped into the preparation of active compound of the desired concentration and are populated with caterpillars of the army worm (Spodoptera exigua) while the leaves are still moist. After the desired period of time, the kill in % is determined. 100% means that all caterpillars have been killed; 0% means that none of the caterpillars have been killed.
row,SMILES,Kill rate in % after 6 d [%]
1,Fc1cccc(F)c1C1=NC(c2ccc(-c3ccc(OC(F)(F)F)cc3)cc2)CC1 (centres unmarked) [drawing 80],55
2,Fc1cccc(F)c1C1=N[C@@H](c2ccc(-c3ccc(OC(F)(F)F)cc3)cc2)CC1 [drawing 81],100

# Same assay, conditions: 1.6 ppm
row,SMILES,Kill rate in % after 6 d [%]
1,Fc1cccc(F)c1C1=N[C@H](c2ccc(-c3ccc(SC(F)(F)F)cc3)cc2)CC1 [drawing 84],0

# Same assay, conditions: 8 ppm
row,SMILES,Kill rate in % after 6 d [%]
1,Fc1cccc(F)c1C1=N[C@H](c2ccc(-c3ccc(OC(F)(F)F)cc3)cc2)CC1 [drawing 82],0

# Test system: Plutella xylostella
# Experiment: Plutella test (cabbage leaves, dip)
# Type: in vivo
# Settings: 0.01 ppm
# Procedure: as §1, with “diamond back moth (Plutella xylostella)” for “army worm (Spodoptera exigua)”
row,SMILES,Kill rate in % after 6 d [%]
1,Fc1cccc(F)c1C1=N[C@@H](c2ccc(-c3ccc(OC(F)(F)F)cc3)cc2)CC1 [drawing 72],100
2,Fc1cccc(F)c1C1=NC(c2ccc(-c3ccc(OC(F)(F)F)cc3)cc2)CC1 (centres unmarked) [drawing 71],0

# Same assay, conditions: 0.0128 ppm
row,SMILES,Kill rate in % after 6 d [%]
1,Fc1cccc(F)c1C1=N[C@@H](c2ccc(-c3ccc(SC(F)(F)F)cc3)cc2)CC1 [drawing 75],45
2,Fc1cccc(F)c1C1=NC(c2ccc(-c3ccc(SC(F)(F)F)cc3)cc2)CC1 (centres unmarked) [drawing 74],10

# Same assay, conditions: 1.6 ppm
row,SMILES,Kill rate in % after 6 d [%]
1,Fc1cccc(F)c1C1=N[C@H](c2ccc(-c3ccc(SC(F)(F)F)cc3)cc2)CC1 [drawing 76],5
2,Fc1cccc(F)c1C1=N[C@H](c2ccc(-c3ccc(OC(F)(F)F)cc3)cc2)CC1 [drawing 73],0
